According to the NIST ThermoML archive (doi:10.1016/j.jct.2018.02.018):
Numbers after ± are expanded uncertainties.

Key:
[1] = xn = mol fraction of the nth substance listed; conditions: 100 kPa, Liquid; for speed of sound: Frequency=3 MHz, Single path-length method; for mass density: Vibrating tube method
[2] = refractive index (Na D-line) (dimensionless); xn = mol fraction of the nth substance listed; conditions: 100 kPa, Liquid, Standard Abbe refractometry

NCc1ccccc1 [benzylamine] + C[S+](C)[O-]
Conditions | mass density, [1] [kg/m3] | refractive index, [2] | speed of sound, [1] [m/s]
293.15 K, x2 = 0 | 983 ± 4 | 1.544 ± 0.006 | 1579.7 ± 1.7
293.15 K, x2 = 0.1031 | 992 ± 4 | 1.54 ± 0.006 | 1578.5 ± 1.7
293.15 K, x2 = 0.1998 | 1001 ± 4 | 1.536 ± 0.006 | 1575.9 ± 1.6
293.15 K, x2 = 0.2979 | 1011 ± 4 | 1.532 ± 0.006 | 1571.1 ± 1.6
293.15 K, x2 = 0.399 | 1021 ± 4 | 1.526 ± 0.006 | 1565.5 ± 1.6
293.15 K, x2 = 0.4991 | 1032 ± 4 | 1.52 ± 0.006 | 1558.8 ± 1.6
293.15 K, x2 = 0.5886 | 1043 ± 4 | 1.515 ± 0.006 | 1551.6 ± 1.5
293.15 K, x2 = 0.6999 | 1056 ± 4 | 1.507 ± 0.006 | 1540.9 ± 1.5
293.15 K, x2 = 0.8029 | 1070 ± 4 | 1.498 ± 0.006 | 1530 ± 1.5
293.15 K, x2 = 0.8991 | 1084 ± 4 | 1.49 ± 0.006 | 1517.7 ± 1.5
293.15 K, x2 = 0.9493 | 1092 ± 4 | 1.485 ± 0.006 | 1510.6 ± 1.5
303.15 K, x2 = 0 | 974 ± 4 | 1.539 ± 0.006 | 1540.2 ± 1.7
303.15 K, x2 = 0.1031 | 983 ± 4 | 1.535 ± 0.006 | 1539.3 ± 1.7
303.15 K, x2 = 0.1998 | 992 ± 4 | 1.531 ± 0.006 | 1536.1 ± 1.6
303.15 K, x2 = 0.2979 | 1002 ± 4 | 1.527 ± 0.006 | 1533.5 ± 1.6
303.15 K, x2 = 0.399 | 1012 ± 4 | 1.522 ± 0.006 | 1527.6 ± 1.6
303.15 K, x2 = 0.4991 | 1023 ± 4 | 1.516 ± 0.006 | 1521.6 ± 1.6
303.15 K, x2 = 0.5886 | 1033 ± 4 | 1.51 ± 0.006 | 1514.9 ± 1.5
303.15 K, x2 = 0.6999 | 1047 ± 4 | 1.502 ± 0.006 | 1504.8 ± 1.5
303.15 K, x2 = 0.8029 | 1061 ± 4 | 1.494 ± 0.006 | 1494.9 ± 1.5
303.15 K, x2 = 0.8991 | 1075 ± 4 | 1.485 ± 0.006 | 1483.3 ± 1.5
303.15 K, x2 = 0.9493 | 1082 ± 4 | 1.48 ± 0.006 | 1476.2 ± 1.5
313.15 K, x2 = 0 | 965 ± 4 | 1.534 ± 0.006 | 1500 ± 1.7
313.15 K, x2 = 0.1031 | 974 ± 4 | 1.53 ± 0.006 | 1500.2 ± 1.7
313.15 K, x2 = 0.1998 | 983 ± 4 | 1.527 ± 0.006 | 1497.6 ± 1.6
313.15 K, x2 = 0.2979 | 993 ± 4 | 1.522 ± 0.006 | 1494.6 ± 1.6
313.15 K, x2 = 0.399 | 1003 ± 4 | 1.517 ± 0.006 | 1490.3 ± 1.6
313.15 K, x2 = 0.4991 | 1014 ± 4 | 1.511 ± 0.006 | 1484.8 ± 1.6
313.15 K, x2 = 0.5886 | 1024 ± 4 | 1.505 ± 0.006 | 1478.6 ± 1.5
313.15 K, x2 = 0.6999 | 1038 ± 4 | 1.498 ± 0.006 | 1469.2 ± 1.5
313.15 K, x2 = 0.8029 | 1051 ± 4 | 1.489 ± 0.006 | 1460 ± 1.5
313.15 K, x2 = 0.8991 | 1065 ± 4 | 1.481 ± 0.006 | 1448.6 ± 1.5
313.15 K, x2 = 0.9493 | 1072 ± 4 | 1.476 ± 0.006 | 1442.2 ± 1.5
323.15 K, x2 = 0 | 957 ± 4 | 1.529 ± 0.006 | 1461.1 ± 1.7
323.15 K, x2 = 0.1031 | 966 ± 4 | 1.526 ± 0.006 | 1461.4 ± 1.7
323.15 K, x2 = 0.1998 | 974 ± 4 | 1.522 ± 0.006 | 1459.4 ± 1.6
323.15 K, x2 = 0.2979 | 984 ± 4 | 1.517 ± 0.006 | 1457.4 ± 1.6
323.15 K, x2 = 0.399 | 994 ± 4 | 1.512 ± 0.006 | 1453.3 ± 1.6
323.15 K, x2 = 0.4991 | 1005 ± 4 | 1.506 ± 0.006 | 1448.4 ± 1.6
323.15 K, x2 = 0.5886 | 1015 ± 4 | 1.501 ± 0.006 | 1442.7 ± 1.5
323.15 K, x2 = 0.6999 | 1028 ± 4 | 1.493 ± 0.006 | 1434 ± 1.5
323.15 K, x2 = 0.8029 | 1042 ± 4 | 1.485 ± 0.006 | 1425.3 ± 1.5
323.15 K, x2 = 0.8991 | 1055 ± 4 | 1.476 ± 0.006 | 1414.6 ± 1.5
323.15 K, x2 = 0.9493 | 1062 ± 4 | 1.471 ± 0.006 | 1408.5 ± 1.5
